From patent US6855710B2, “Substituted indolines with an inhibitory effect on various kinases and complexes of CDKs” (Boehringer Ingelheim Pharma KG, priority 1998, dated 2005)

SMILES	melting point
CCCS(=O)(=O)N(CCN(C)C)c1ccc(N/C(=C2\C(=O)Nc3ccccc32)c2ccccc2)cc1 [Example 311, (Z)-3-{1-[4-(N-(2-dimethylaminoethyl)-N-propylsulphonyl-amino)-phenylamino]-1-phenyl-methylidene}-2-indolinone]	245 °C
CN(C)C(=O)CN(C)S(=O)(=O)c1ccc(N/C(=C2\C(=O)Nc3ccc([N+](=O)[O-])cc32)c2ccccc2)cc1 [Example 415, (Z)-3-{1-[4-(N-dimethylaminocarbonylmethyl-N-methyl-aminosulphonyl)-phenylamino]-1-phenyl-methylidene}-5-nitro-2-indolinone]	277 to 278 °C
CN(C)C(=O)COc1ccc(N/C(=C2\C(=O)Nc3ccccc32)c2ccccc2)cc1 [Example 291, (Z)-3-{1-[4-(dimethylaminocarbonylmethyloxy)-phenylamino]-1-phenyl-methylidene}-2-indolinone]	224 to 226 °C
CN(Cc1ccc(N/C(=C2\C(=O)Nc3ccc([N+](=O)[O-])cc32)c2ccccc2)cc1)C1CCCC1 [Example 277, (Z)-3-{1-[4-(N-cyclopentyl-N-methyl-aminomethyl)-phenylamino]-1-phenyl-methylidene}-5-nitro-2-indolinone]	228 °C
CN(C)CCCNS(=O)(=O)c1ccc(N/C(=C2\C(=O)Nc3ccc([N+](=O)[O-])cc32)c2ccccc2)cc1 [Example 403, (Z)-3-{1-[4-(3-dimethylamino-propylaminosulphonyl)-phenylamino]-1-phenyl-methylidene}-5-nitro-2-indolinone]	268 to 269 °C
O=C1Nc2ccc([N+](=O)[O-])cc2/C1=C(/Nc1ccc(CNC2CCCC2)cc1)c1ccccc1 [Example 276, (Z)-3-{1-[4-(cyclopentylaminomethyl)-phenylamino]-1-phenyl-methylidene}-5-nitro-2-indolinone]	231 °C
CN(C)CCS(=O)(=O)N(C)c1ccc(N/C(=C2\C(=O)Nc3ccccc32)c2ccccc2)cc1 [Example 382, (Z)-3-{1-[4-(N-(2-dimethylamino-ethylsulphonyl)-N-methyl-amino)-phenylamino]-1-phenyl-methylidene}-2-indolinone]	165 to 168 °C
CN(C)CCOc1ccc(N/C(=C2\C(=O)Nc3ccccc32)c2ccccc2)cc1 [Example 284, (Z)-3-{1-[4-(2-dimethylaminoethyloxy)-phenylamino]-1-phenyl-methylidene}-2-indolinone]	258 to 260 °C
O=C1Nc2ccc([N+](=O)[O-])cc2/C1=C(/Nc1cccc(CN2CCCCC2)c1)c1ccccc1 [Example 108, (Z)-3-[1-(3-piperidinomethyl-phenylamino)-1-phenyl-methylidene]-5-nitro-2-indolinone]	214 to 215 °C
CN(C)CCN(C)S(=O)(=O)c1ccc(N/C(=C2\C(=O)Nc3ccccc32)c2ccccc2)cc1 [Example 400, (Z)-3-{1-[4-(N-(2-dimethylaminoethyl)-N-methyl-aminosulphonyl)-phenylamino]-1-phenyl-methylidene}-2-indolinone]	200 to 203 °C
CC(=O)N(CC(=O)O)c1ccc(N/C(=C2\C(=O)Nc3ccccc32)c2ccccc2)cc1 [Example 353, (Z)-3-{1-[4-(N-carboxymethyl-N-acetyl-amino)-phenylamino]-1-phenyl-methylidene}-2-indolinone]	276 °C (dec.)
CN(C(=O)CCNC(=O)OC(C)(C)C)c1ccc(N/C(=C2\C(=O)Nc3ccccc32)c2ccccc2)cc1 [Example 376, (Z)-3-{1-[4-(N-(2-tert.butoxycarbonylamino-ethylcarbonyl)-N-methyl-amino)-phenylamino]-1-phenyl-methylidene}-2-indolinone]	246 to 248 °C
COc1ccc(/C(Nc2ccc(CN(C)C)cc2)=C2/C(=O)Nc3ccc([N+](=O)[O-])cc32)cc1 [Example 216, (Z)-3-[1-(4-dimethylaminomethyl-phenylamino)-1-(4-methoxyphenyl)-methylidene]-5-nitro-2-indolinone]	259 to 262 °C
CN(c1cccc(N/C(=C2\C(=O)Nc3ccccc32)c2ccccc2)c1)S(C)(=O)=O [Example 184, (Z)-3-{1-[3-(N-methyl-N-methylsulphonyl-amino)-phenylamino]-1-phenyl-methylidene}-2-indolinone]	261 °C
CS(=O)(=O)Nc1cccc(N/C(=C2\C(=O)Nc3ccccc32)c2ccccc2)c1 [Example 183, (Z)-3-[1-(3-methylsulphonylamino-phenylamino)-1-phenyl-methylidene]-2-indolinone]	275 °C
CCOC(=O)CN(C(C)=O)c1ccc(N/C(=C2\C(=O)Nc3ccccc32)c2ccccc2)cc1 [Example 352, (Z)-3-{1-[4-(N-ethoxycarbonylmethyl-N-acetyl-amino)-phenylamino]-1-phenyl-methylidene}-2-indolinone]	244 to 247 °C
CN(C)CCNS(=O)(=O)c1ccc(N/C(=C2\C(=O)Nc3ccc([N+](=O)[O-])cc32)c2ccccc2)cc1 [Example 401, (Z)-3-{1-[4-(2-dimethylamino-ethylaminosulphonyl)-phenylamino]-1-phenyl-methylidene}-5-nitro-2-indolinone]	260 to 261 °C

SMILES	melting point
CC(C)(C)OC(=O)NCc1cccc(N/C(=C2\C(=O)Nc3ccccc32)c2ccccc2)c1 [Example 67, (Z)-3-[1-(3-tert.butoxycarbonylaminomethyl-phenylamino)-1-phenyl-methylidene]-2-indolinone]	190 to 195 °C
CCOC(=O)CNS(=O)(=O)c1ccc(N/C(=C2\C(=O)Nc3ccc([N+](=O)[O-])cc32)c2ccccc2)cc1 [Example 410, (Z)-3-{1-[4-(ethoxycarbonylmethylaminosulphonyl)-phenylamino]-1-phenyl-methylidene}-5-nitro-2-indolinone]	247 to 249 °C
CN(C)Cc1ccc(N/C(=C2\C(=O)Nc3ccccc32)c2cccc(Cl)c2)cc1 [Example 223, (Z)-3-[1-(4-dimethylaminomethyl-phenylamino)-1-(3-chlorophenyl)-methylidene]-2-indolinone]	197 to 198 °C
CCOC(=O)CCNCc1ccc(N/C(=C2\C(=O)Nc3ccc([N+](=O)[O-])cc32)c2ccccc2)cc1 [Example 241, (Z)-3-{1-[4-(2-ethoxycarbonyl-ethylaminomethyl)-phenylamino]-1-phenyl-methylidene}-5-nitro-2-indolinone]	129 to 131 °C
NC(=O)c1ccc(N/C(=C2\C(=O)Nc3ccccc32)c2ccccc2)cc1 [Example 20, (Z)-3-[1-(4-aminocarbonyl-phenylamino)-1-phenyl-methylidene]-2-indolinone]	321 to 323 °C
CC(C)S(=O)(=O)N(CCN(C)C)c1ccc(N/C(=C2\C(=O)Nc3ccccc32)c2ccccc2)cc1 [Example 309, (Z)-3-{1-[4-(N-(2-dimethylaminoethyl)-N-isopropylsulphonyl-amino)-phenylamino]-1-phenyl-methylidene}-2-indolinone]	247 °C
CC(C)(C)OC(=O)NCCc1ccc(N/C(=C2\C(=O)Nc3ccc([N+](=O)[O-])cc32)c2ccc(CN)cc2)cc1 [Example 155, (Z)-3-{1-[4-(2-tert.butoxycarbonylamino-ethyl)-phenylamino]-1-(4-aminomethyl-phenyl)-methylidene}-5-nitro-2-indolinone]	215 to 217 °C (dec.)
O=C(O)CNCCc1ccc(N/C(=C2\C(=O)Nc3ccc([N+](=O)[O-])cc32)c2ccccc2)cc1 [Example 258, (Z)-3-{1-[4-(2-carboxymethylamino-ethyl)-phenylamino]-1-phenyl-methylidene}-5-nitro-2-indolinone]	242 to 243 °C (dec.)
COCCN(C)CC(=O)N(C)c1ccc(N/C(=C2\C(=O)Nc3ccccc32)c2ccccc2)cc1 [Example 372, (Z)-3-{1-[4-(N—(N-(2-methoxyethyl)-N-methyl-aminomethylcarbonyl)-N-methyl-amino)-phenylamino]-1-phenyl-methylidene}-2-indolinone]	197 to 199 °C
O=C(O)COc1ccc(N/C(=C2\C(=O)Nc3ccccc32)c2ccccc2)cc1 [Example 290, (Z)-3-{1-[4-(carboxymethyloxy)-phenylamino]-1-phenyl-methylidene}-2-indolinone]	238 to 240 °C
CCCCNCc1ccc(N/C(=C2\C(=O)Nc3ccc([N+](=O)[O-])cc32)c2ccccc2)cc1 [Example 166, (Z)-3-[1-(4-butylaminomethyl-phenylamino)-1-phenyl-methylidene]-5-nitro-2-indolinone]	183 °C
CC(=O)N(CCN1CCOCC1)c1ccc(N/C(=C2\C(=O)Nc3ccc([N+](=O)[O-])cc32)c2ccccc2)cc1 [Example 334, (Z)-3-{1-[4-(N-(2-morpholinoethyl)-N-acetyl-amino)-phenylamino]-1-phenyl-methylidene}-5-nitro-2-indolinone]	229 °C
C[C@H](N)c1ccc(N/C(=C2\C(=O)Nc3ccc([N+](=O)[O-])cc32)c2ccccc2)cc1.Cl	230 to 235 °C
O=C1Nc2ccc([N+](=O)[O-])cc2/C1=C(/Nc1ccccc1)c1ccc(CN2C(=O)c3ccccc3C2=O)cc1 [Example 153, (Z)-3-[1-phenylamino-1-(4-phthalimidomethyl-phenyl)-methylidene]-5-nitro-2-indolinone]	334 to 336 °C (dec.)
CN(c1ccc(N/C(=C2\C(=O)Nc3ccccc32)c2ccccc2)cc1)S(=O)(=O)CCN1CCCCC1 [Example 383, (Z)-3-{1-[4-(N-(2-piperidinoethylsulphonyl)-N-methyl-amino)-phenylamino]-1-phenyl-methylidene}-2-indolinone]	121 to 123 °C
CC(=O)N1C(=O)/C(=C(\Nc2ccc(CNC(=O)OC(C)(C)C)cc2)c2ccc(CN3C(=O)c4ccccc4C3=O)cc2)c2cc([N+](=O)[O-])ccc21 [Example 146, (Z)-3-[1-(4-tert.butoxycarbonylaminomethyl-phenylamino)-1-(4-phthalimidomethyl-phenyl)-methylidene]-1-acetyl-5-nitro-2-indolinone]	125 °C (dec.)
CC(=O)N(C)c1cccc(N/C(=C2\C(=O)Nc3ccccc32)c2ccccc2)c1 [Example 38, (Z)-3-{1-[3-(N-acetyl-N-methylamino)-phenylamino]-1-phenyl-methylidene}-2-indolinone]	237 to 239 °C
